{
  "source": "patent US5968513A",
  "about": "(priority 1996, dated 1999)",
  "molecules": {"B1": {"name": "partially purified native β-chain: crude preparation of native β-hCG (protein, UniProt P0DN86 21-165, looked up)", "Choriogonadotropin subunit …": "SKEPLRPRCRPINATLAVEKEGCPVCITVNTTICAGYCPTMTRVLQGVLPALPQVVCNYRDVRFESIRLPGCPRGVNPVVSYAVALSCQCALCRRSTTDCGGPKDHPLTCDDPRFQDSSSSKAPPPSLPSPSRLPGPSDTPILPQ", "modifications": "native, partially purified", "notes": "crude preparation of native β-hCG"}},
  "data": [
    {"test_system": "Hematopoietic progenitor cells from normal bone marrow and cord blood", "assay": "Clonogenic (colony) assays of hematopoietic progenitor cells in methylcellulose (CFU-MIX, BFU-e, CFU-GM)", "type": "cell-based, human", "conditions": "hCG preparations 200 IU/ml; subunits and peptides 100 μg/ml; 10 days; aggregates of more than 50 cells counted", "excerpt": "(§1) Hematopoietic progenitor cells (2×10^5 cell/ml) were isolated from normal bone marrow and cord blood and seeded in methylcellulose. […] Aggregates containing more than 50 cells after 10 days of culture were counted as colonies.", "values": [
      {"molecule": "β-hCG peptide 57-93: β-hCG peptide of amino acids 57-93 (CNYRDVRFESIRLPGCPRGVNPVVSYAVALSCQCALC; UniProt P0DN86 77-113, looked up, fragment)", "growth of hematopoietic progenitors (pro-hematopoietic activity, colony numbers)": "little or no effects"},
      {"molecule": "β-hCG peptide 38-57: β-hCG peptide of amino acids 38-57 (CPTMTRVLQGVLPALPQVVC; UniProt P0DN86 58-77, looked up, fragment)", "growth of hematopoietic progenitors (pro-hematopoietic activity, colony numbers)": "little or no effects"},
      {"molecule": "β-hCG peptide 74-95: β-hCG peptide of amino acids 74-95", "growth of hematopoietic progenitors (pro-hematopoietic activity, colony numbers)": "little or no effects"},
      {"molecule": "α-hCG peptide 88-92: α-hCG peptide of amino acids 88-92 (YYHKS; UniProt P01215 112-116, looked up, fragment)", "growth of hematopoietic progenitors (pro-hematopoietic activity, colony numbers)": "little or no effects"},
      {"molecule": "β-hCG peptide 34-49: β-hCG peptide of amino acids 34-49 (CAGYCPTMTRVLQGVL; UniProt P0DN86 54-69, looked up, fragment)", "growth of hematopoietic progenitors (pro-hematopoietic activity, colony numbers)": "little or no effects"},
      {"molecule": "β-hCG peptide 7-40: β-hCG peptide of amino acids 7-40 (PRCRPINATLAVEKEGCPVCITVNTTICAGYCPT; UniProt P0DN86 27-60, looked up, fragment)", "growth of hematopoietic progenitors (pro-hematopoietic activity, colony numbers)": "little or no effects"},
      {"molecule": "β-hCG peptide 100-110: β-hCG peptide of amino acids 100-110 (CGGPKDHPLTC; UniProt P0DN86 120-130, looked up, fragment)", "growth of hematopoietic progenitors (pro-hematopoietic activity, colony numbers)": "little or no effects"},
      {"molecule": "B1", "growth of hematopoietic progenitors (pro-hematopoietic activity, colony numbers)": "directly promoted"}
    ]},
    {"test_system": "Hematopoietic progenitor cells from normal bone marrow and cord blood", "assay": "Clonogenic (colony) assays of hematopoietic progenitor cells in methylcellulose (CFU-MIX, BFU-e, CFU-GM)", "type": "cell-based, human", "conditions": "hCG preparations 200 IU/ml; subunits and peptides 100 μg/ml; 10 days; aggregates of more than 50 cells counted; listed as whole β-chain", "excerpt": "as §1", "values": [
      {"molecule": "B1", "growth of hematopoietic progenitors (pro-hematopoietic activity, colony numbers)": "considerable pro-hematopoietic activity"}
    ]}
  ]
}
